Results from patent publication US20170246130A1, “4-HYDROXYBENZOHYDARZIDE-A NEW CLASS OF ANGIOGENIC ENZYME THYMIDINE PHOSPHORYLASE INHIBITORS” (priority 2016, published 2017).
Entries after “also recorded” stand apart in the source; their conditions may differ.

Experiments:
[1] = target: T1, thymidine phosphorylase (E. coli) (Escherichia coli, UniProt P07650); assay: Kinetic (mechanistic) studies on thymidine phosphorylase; type: biochemical; settings: thymidine as variable substrate
T1 construct: purchased Sigma Aldrich, USA; host or cells: Escherichia coli
T1 sequence (P07650 whole entry): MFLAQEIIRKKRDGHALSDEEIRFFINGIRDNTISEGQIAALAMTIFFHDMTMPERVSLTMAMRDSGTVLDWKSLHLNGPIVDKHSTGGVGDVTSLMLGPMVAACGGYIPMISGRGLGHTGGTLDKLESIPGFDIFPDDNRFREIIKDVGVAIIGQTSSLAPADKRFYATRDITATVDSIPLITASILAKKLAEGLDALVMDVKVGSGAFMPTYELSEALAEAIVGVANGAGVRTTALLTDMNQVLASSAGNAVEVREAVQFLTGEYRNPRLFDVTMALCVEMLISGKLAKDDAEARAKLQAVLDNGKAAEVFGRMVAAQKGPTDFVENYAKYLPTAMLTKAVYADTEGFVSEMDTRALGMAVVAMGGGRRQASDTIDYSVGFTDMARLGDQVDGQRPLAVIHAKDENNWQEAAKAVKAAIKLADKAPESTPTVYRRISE
Protocol: These studies disclose the mechanism of inhibitor binding to enzyme. Kinetic studies were carried out using thymidine as variable substrate. […] This was deduced from Lineweaver Burk plot. This compound therefore, interacted either with the amino acids of hydrophobic pocket of the enzyme or at allosteric site of the enzyme. […] Uncompetitive inhibitor causes decrease in both Km and Vmax values of the enzyme (Figure-6). […] Ki values were determined by secondary re-plot, and confirmed by Dixon plot.
Kinetic studies were carried out to find the mechanism of inhibitor action. Inhibitor could bind with enzyme in multiple ways such as in competitive, non-competitive, mixed or uncompetitive way. In kinetic assay, the enzyme (0.058 U/200 μL) was incubated with different concentrations of inhibitor for 10 min at 30° C. The reactions was then initiated by adding different concentrations (0.1875 mM-1.5 mM) of substrate (thymidine) and the resulting degradation of thymidine was measured continuously at 290 nm for 10 min on a ELISA plate reader. Every experiment was run in triplicate.
Line-weaver Burk plot was plotted to determine the type of inhibition. This was accomplished by plotting the reciprocal of the rate of reaction against the reciprocal of the substrate concentration. Ki values were determined by secondary re-plot, and reconfirmed by Dixon plot. The Ki was determined by non-linear regression equation.

[2] = target: T1, thymidine phosphorylase (E. coli); assay: In-vitro thymidine phosphorylase inhibition assay (spectrophotometric); type: biochemical; settings: recombinant E. coli TP, thymidine substrate, pH 7.0, 30° C., 290 nm; read-out: IC50 (μM ± S.E.M.), thymidine phosphorylase inhibition
Protocol: In vitro studies on thymidine phosphorylase were carried out in 96-well microtiter plate using Spectra Max-340 and Spectra Max-384 spectrophotometers (Molecular Devices, CA, USA). Deionized water used for buffer preparation was collected by Simplicity Water Purification System (Milipore).
Since human TP is not commercially available, we used commercially available recombinant E. coli TP (expressed in Escherichia coli) enzyme. Primary sequence of TP is mostly conserved throughout the evolution as mammalian TP share 39% sequence similarity with TP of E. coli. The mammalian enzyme also shared 65-70% similarity with the active site residues of E. coli TP enzyme (Bronckaers et al., 2009). Assay for thymidine phosphorylase inhibition was performed spectrophotometrically, following method of Bera et al. with some modifications (Bera et al., 2013).
The reaction catalyzed by thymidine phosphorylase involves reversible phosphorolysis of thymidine (FIG. 1), to thymine and 2-deoxyribose-1-phosphate (Bronckaers et al., 2009).
Reaction mixture contained 150 μL of potassium phosphate buffer (pH 7.0, 50 mM), 20 µL of enzyme (0.058 U/well) and 10 μL of test compound (0.5 mM in dimethylsulfoxide). The reaction mixture was incubated for 10 min at 30° C.
The enzyme inhibitory activities were calculated using the following formula:
Percent Inhibition=100−(O.D. of test/O.D. of control)×100
Where test is the enzyme activity with sample, and control is the enzyme activity without sample, and O.D. is optical density.
The IC50 of the compounds was calculated using EZ-Fit Enzyme Kinetic Program (Perrella Scientific Inc., Amhrest, U.S.A.).

[3] = system: mouse fibroblast cell line (3T3); assay: MTT anti-proliferative assay, 3T3 cells; type: cell-based; settings: in comparison to cyclohexamide
Protocol: (§1) Compounds found to be active in inhibiting thymidine phosphorylase were then subjected to MTT proliferation assay. Rapid proliferation is the property inherent to cancerous/tumor cells. This assay was carried out to study the effect of these compounds on proliferation of various cell lines. The cell lines which we targeted were mouse fibroblast cell line (3T3), and prostate cancer line (PC3).
(§2) Anti-proliferative activity of active compounds was evaluated by using the standard MTT (3-[4,5-dimethylthiazole-2-yl]-2,5-diphenyl-tetrazolium bromide) colorimetric assay in 96-well plate (Dimas et al., 1998).
(§3) It is a colorimetric assay that measures the reduction of MTT, by mitochondrial enzyme i.e. succinate dehydrogenase. The MTT enters into the mitochondria of cell, where it is reduced to an insoluble formazan salt (FIG. 8). The extent of MTT reduction was measured at 540 nm. As reduction of MTT can only occur in metabolically active cells, the level of activity is actually a measure of the viability of the cells (Vega-Avila and Pugsley, 2011).
(§4) Mouse fibroblast cell line 3T3 was cultured in DMEM, supplemented with 5% of FBS, 100 IU/mL of penicillin and 100 μg/mL of streptomycin, and kept at 37° C. in 5% CO2 incubator. For the preparation of cell culture, 100 μL/well of cell solution (5×10^4 cells/mL) was added into 96-well plate. The plate was incubated for overnight, and fresh medium was added after the removal of old medium. The test compounds were also added in different concentrations into the plate and plate was again incubated for 48 h. After the completion of this incubation period, 200 μL MTT (0.5 mg/mL) was added and plate was again incubated for 4 h, after this final incubation 100 μL of DMSO was added to each well. The level of MTT reduction to formazan was evaluated by change in absorbance at 540 nm using a micro plate reader (Spectra Max plus, Molecular Devices, CA, USA).

[4] = system: prostate cancer line (PC3); assay: MTT anti-proliferative assay, PC3 cells; type: cell-based; settings: PC3 cells
Protocol: as §1, §2, §3, §4

CC/C(=N\NC(=O)c1ccc(O)cc1)c1cc(O)ccc1O [Compound 30, 4-Hydroxy-N′-[(E)-1-(2,5-dihydroxyphenyl)propylidene]benzohydrazide]
Inhibition Type ([1]; Lineweaver-Burk plot): un-competitive; also recorded: Uncompetitive
Ki ([1]; secondary re-plot, confirmed by Dixon plot, read-out: Ki (μM ± S.E.M.), dissociation constant): 159.05 ± 0.002 µM
IC50 [2]: 173 ± 1.4 µM
inhibition of the proliferation of 3T3 cells (in words) [3]: significantly inhibit
IC50 ± SD (μM), PC3 Cell Line [4]: Inactive
